Consider 46 molecules from PubChem BioAssay AID1053144 (Broad Institute, 2014).

The test system of this test is NPC TCF/LEF luciferase reporter, Wnt3a EC25, 24 h. The test can be described thus: Wnt/beta-catenin signaling activators, dose response, cell-based, iPS-derived NPC, luciferase, Wnt3a, cherry-pick (AID 1053144).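 Also: Wnt3a stimulus is conditioned medium from Wnt3a-transfected mouse L cells at 5% in well.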
For the molecule `O=C(Nc1ncccc1O)c1ccc(Oc2ccccc2)cc1`, the AC30 was 12.3 µM.
With `Cc1ccc(Nc2ncccc2C(N)=O)cc1[N+](=O)[O-]`, the AC30 was 5.42 µM.
Regarding `COc1ccccc1CNC(=O)COc1ccccc1C(=O)c1cnn(-c2ccccc2)c1`, the AC30 is 10 µM.
For the molecule `O=C(Nc1ncccc1O)c1ccc2c(c1)OCO2`, the AC30 was 7.75 µM.
For the molecule `O=C(NCCO)c1ccc2c3n(nc2c1)-c1ccc(Cl)cc1CO3`, the AC30 is 12.3 µM.
The same measure for `Cn1c(CCNC(=O)c2ccco2)nc2cc(NC(=O)c3ccco3)ccc21`: 11.8 µM; for `CCOCC(=O)Nc1nc2ccc(OCC)cc2s1`: 11.8 µM; for `COc1ccc(C(=O)O/N=C(\N)c2ccc(Cl)cc2)cc1`: 9.22 µM.
The same measure for `Cc1ccc(COc2ccc3c(c2)OCO3)cc1`: 17 µM.
For `O=C(Nn1cnc2ccccc2c1=O)c1c(F)cccc1F`, the AC30 is 18.8 µM.
For the molecule `Cc1ccc2cc(/C=C/C(=O)c3ccco3)c(Cl)nc2c1`, the AC30 is 16.8 µM.
Then `CCCNC(=O)c1oc2ccc3c(c2c1C)C=CC(C)(C)O3`, with 8.63 µM.
As for `O=c1c2cccc(Cl)c2nc2n1Cc1ccccc1-2`, the AC30 is 16.7 µM.
With `Fc1ccccc1-c1nc(-c2ccncc2)no1`, the AC30 is 2.79 µM.
For the molecule `CC1=NN(c2ccccc2)C(=O)C1N=Nc1ccccc1` (stereo unspecified), the AC30 was 4.78 µM.
Turning to `Cc1cccc(NC(=O)c2ccccn2)c1C`, the AC30 was 11.4 µM.
Consider `O=C(Nc1ncccc1O)c1ccc2c(c1)OCCO2`, for which the AC30 was 5.13 µM.
Consider `O=C(c1cc2ccccc2o1)c1cccs1`, for which the AC30 was 8.58 µM.
For the molecule `CCn1c(SCC(=O)c2ccc(Cl)cc2)nnc1C(C)C`, the AC30 is 12.1 µM.
Then `CCOC(=O)c1c(Nc2ccc(OC)cc2)n[nH]c1C`, with 11.4 µM; and `COc1ccc(C(=O)COC(=O)c2sccc2C)cc1OC`, with 11.8 µM; and `COc1ccc(C(=O)NC2=NCCS2)cc1`, with 9.19 µM.
For the molecule `CC1CC1C(=O)OCc1cc(=O)n2cc(Br)ccc2n1` (stereo unspecified), the AC30 was 9.48 µM.
With `O=C(/C=C/c1ccco1)Nc1ccc2c(c1)OCO2`, the AC30 is 12.1 µM.
`CCCCOC(=O)Nc1ccc(C(=O)OC)cc1`: the AC30 is 11.7 µM.
In the case of `Cc1ccc(C(=O)NNc2ncnc3ccccc23)cc1`, the AC30 was 8.88 µM.
As to `O=C(Nc1ccccc1O)c1ccc(NC(=O)C2CC2)cc1`, the AC30 is 5.37 µM.
For the molecule `O=C(/C=C/c1ccco1)NCCc1ccccc1`, the AC30 was 5.05 µM.
Turning to `Oc1ccccc1-c1nnc(COc2ccc(Cl)cc2Cl)o1`, the AC30 is 10.5 µM.
The same measure for `O=C(c1cc(-c2cccc(O)c2)on1)N1CCCCCC1`: 4.78 µM; for `Cc1ccc2oc(-c3cccc(NC(=O)c4ccccn4)c3)nc2c1`: 10.9 µM.
Take `COc1ccc(/C=N/Nc2ccccn2)cc1O`: the AC30 is 11.6 µM.
Then `O=c1/c(=C\c2ccc(F)cc2)sc2n1CCCN=2`, with 12.5 µM.
On to `Nc1ccccc1NC(=O)c1ccccc1`, for which the AC30 is 8.77 µM.
The same measure for `O=C(C=Cc1ccco1)c1ccc2ccccc2c1`: 11.2 µM.
Then `O=C(/C=C/c1ccc(O)c(O)c1)c1ccccc1O`, with 8.06 µM; and `COC(=O)CCc1sc(Nc2ccccc2)nc1-c1ccc(OC)cc1`, with 12.9 µM.
The same measure for `COc1ccc2sc(NC(=O)CC(C)C)nc2c1`: 13.4 µM; for `Cc1ccccc1NC(=O)c1cc2ccccn2n1`: 4.78 µM.
With `Oc1ccc(Br)cc1-c1cc(-c2ccccc2F)[nH]n1`, the AC30 was 12.9 µM.
For `CCCC(=O)Nc1ccc(C(=O)COC(=O)C2CC2)cc1`, the AC30 was 5.63 µM.
The same measure for `Cc1cccc(C(=O)OCC(=O)N2CCCCCC2)c1C`: 12.1 µM.
Then `COc1ccc2cc(-c3ccn[nH]3)ccc2c1`, with 4.78 µM; and `CC(=O)Nc1sc2c(c1-c1nc3ccccc3s1)CN(C(C)C)CC2`, with 2.43 µM.
Turning to `O=c1oc2ccccc2cc1-c1nc2ccccc2o1`, the AC30 is 8.58 µM.
On to `COCCNC(=O)c1cc2c(s1)-c1ccc(Cl)cc1SC2`, for which the AC30 was 11.2 µM.
